# Measured values from ChEMBL document CHEMBL5137056, “Micromonospora: A Prolific Source of Bioactive Secondary Metabolites with Therapeutic Potential” (J Med Chem, 2022).
# Legend:
# Staphylococcus aureus [1] = assay: Antibacterial activity against Staphylococcus aureus NBRC12732 assessed as bacterial growth inhibition; assay type: functional
# Staphylococcus aureus [2] = assay: Antibacterial activity methicillin-resistant Staphylococcus aureus ATCC 43300 assessed as bacterial growth inhibition by microdilution method; assay type: functional
# [3] = Inhibition of Staphylococcus tyrS using tyrosine as substrate preincubated for 10 mins by substrate addition and measured after 2 hrs; parameters: species or system Staphylococcus sp.
# [4] = Inhibition of gastrulation in starfish embryo; assay type: functional; settings: Marthasterias glacialis
# [5] = test system: Human immunodeficiency virus; assay: Antiviral activity agianst HIV assessed as viral growth inhibition; assay type: functional, organism-based; settings: Human immunodeficiency virus 1
# KB = assay: Cytotoxicity against human KB cells assessed as reduction in cell viability; assay type: functional; settings: read-out: ED50 (the source's name)
# [6] = target: NAD(P)H dehydrogenase [quinone] 1 (Mus musculus) (UniProt Q64669); assay: Activation of QR1 in mouse hepatoma cells incubated for 48 hrs by MTT assay; assay type: cell-based; settings: Hepatoma cell line, filed as activator
# [7] = Upregulation of glutathione level in mouse Hepa1c1c7 cells assessed as drug concentration required for double induction incubated for 48 hrs in presence of NADPH by Ellman method; assay type: functional
# Chain of NAD(P)H dehydrogenase [quinone] 1 (Mus musculus) (Q64669 whole entry): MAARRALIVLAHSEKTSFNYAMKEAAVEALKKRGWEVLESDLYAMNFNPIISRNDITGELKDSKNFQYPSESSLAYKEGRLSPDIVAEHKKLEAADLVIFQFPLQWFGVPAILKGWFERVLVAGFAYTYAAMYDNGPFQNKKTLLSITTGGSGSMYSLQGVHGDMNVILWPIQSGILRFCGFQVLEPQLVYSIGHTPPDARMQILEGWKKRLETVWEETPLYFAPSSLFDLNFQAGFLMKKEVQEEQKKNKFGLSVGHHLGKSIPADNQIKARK
smiles,measurement,setting,value
CC1=C[C@@]2(C)C/C=C/[C@@H](C)[C@@H]3C=C[C@@H]4C[C@@H](C)CC[C@H]4[C@]3(C)C(=O)C3=C(O)[C@@]2(C[C@H]1C[C@@H](C)O)OC3=O,MIC,Staphylococcus aureus [1],1.6 µg/mL
CNC1=CC(=O)c2c(cnc(C)c2C)C1=O [MANSOURAMYCIN A],MIC,Staphylococcus aureus [2],8 µg/mL
N[C@@H](Cc1ccc(O)cc1)C(=O)N[C@H](C(=O)O)[C@H]1[C@H](O)[C@]2(O)CO[C@@H]([C@@H]2O)N1O,IC50,[3],< 0.001 µM
C=C/C=C/[C@H]1O[C@@](O)([C@@H](C)[C@H](O)[C@H](C)[C@H]2OC(=O)/C(OC)=C/C(C)=C/[C@@H](C)[C@@H](O)[C@@H](C)C/C(C)=C/C=C/[C@@H]2OC)C[C@@H](OC(=O)/C=C/C(=O)NC2=C(O)CCC2=O)[C@@H]1C,MIC,[4],0.01 µg/mL
CC(C)CCCCCCCC[C@@H](O)CC(=O)N[C@@H](CCC(=O)O)C(=O)N[C@@H](CC(C)C)C(=O)N[C@H](CC(C)C)C(=O)N[C@H](C(=O)N[C@@H](CC(=O)O)C(=O)N[C@H](CC(C)C)C(=O)N[C@@H](CC(C)C)C(=O)O)C(C)C,IC50,[5],5.3 µM
C=C/C=C/[C@H]1O[C@@](O)([C@@H](C)[C@H](O)[C@H](C)[C@H]2OC(=O)/C(OC)=C/C(C)=C/[C@@H](C)[C@@H](O)[C@@H](C)C/C(C)=C/C=C/[C@@H]2OC)C[C@@H](O)[C@@H]1C,MIC,[4],0.01 µg/mL
COc1n/c(=C\c2ccccc2)c(=O)[nH]/c1=C\c1ccccc1,EC50,KB,0.94 µg/mL
C[C@H]1CC[C@@H]2[C@H](C=C[C@H]3[C@H](C)/C=C/C[C@]4(C)C=C(CO)[C@H](C[C@@H](C)O)C[C@]45OC(=O)C(=C5O)C(=O)[C@@]23C)C1 [MAKLAMICIN],MIC,Staphylococcus aureus [1],13 µg/mL
CCC(C)CCCCCCCC[C@@H](O)CC(=O)N[C@@H](CCC(=O)O)C(=O)N[C@@H](CC(C)C)C(=O)N[C@H](CC(C)C)C(=O)N[C@H](C(=O)N[C@@H](CC(=O)O)C(=O)N[C@H](CC(C)C)C(=O)N[C@@H](CC(C)C)C(=O)O)C(C)C (stereo partly specified),IC50,[5],5.3 µM
CC[C@H]1C[C@@H](C)C(=O)/C=C/[C@]2(C)O[C@H]2[C@H](C)[C@@H](CC)OC(=O)C[C@@H](O)[C@H](C)[C@H]1O[C@@H]1O[C@@H](C)[C@H](O)[C@@H](O)[C@H]1O,CD,[6],10.1 µM
same,CD,[7],27.7 µM
